{"source": "paper PMC5063977", "about": "(The Journal of Biological Chemistry, 2016)", "key": {"RAMP3-CLR (AM2 receptor) [1]": {"target": "T1, RAMP3-CLR (AM2 receptor) (Homo sapiens, UniProt O60896+Q16602)", "T1 construct": "FLAG; expressed in transfected cells; host or cells: HEK-293 or HEK-293S cells, transient transfection, 1:1 RAMP:CLR", "T1 sequence (Q16602 23-461)": "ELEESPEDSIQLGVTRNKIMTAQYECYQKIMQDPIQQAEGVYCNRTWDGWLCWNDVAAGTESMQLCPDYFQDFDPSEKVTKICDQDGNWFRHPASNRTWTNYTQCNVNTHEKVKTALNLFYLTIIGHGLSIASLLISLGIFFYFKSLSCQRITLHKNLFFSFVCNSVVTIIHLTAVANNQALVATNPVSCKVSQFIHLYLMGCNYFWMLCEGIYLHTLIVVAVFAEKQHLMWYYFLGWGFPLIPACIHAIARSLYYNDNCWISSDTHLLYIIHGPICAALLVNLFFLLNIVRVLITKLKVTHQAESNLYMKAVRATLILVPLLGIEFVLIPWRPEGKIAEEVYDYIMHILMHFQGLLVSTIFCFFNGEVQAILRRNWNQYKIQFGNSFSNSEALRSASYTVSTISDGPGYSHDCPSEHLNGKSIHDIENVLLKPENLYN", "T1 sequence (O60896 24-148)": "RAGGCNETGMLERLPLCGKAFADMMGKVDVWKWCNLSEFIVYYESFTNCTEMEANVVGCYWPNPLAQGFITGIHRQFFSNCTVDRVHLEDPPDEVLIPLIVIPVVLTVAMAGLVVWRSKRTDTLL", "test": "S. cerevisiae growth assay, GPA1/Gαq chimera, RAMP3 + CLR", "assay_type": "cell-based", "conditions": "percentage of yeast strain MMY11 (lacking GPA1); 24-h; mean ± S.E., n = 6", "procedure": "FIGURE 7. […] Reporter gene activity was determined following 24-h stimulation. All data are expressed as percentage of the maximum response observed in yeast strain MMY11 and are means ± S.E. of n individual data sets. D, Bar chart showing the efficacy of each ligand for each RAMP-CLR combination at the Gαq chimera determined via application of the operational model of receptor agonism (Ref. [34] and Table 1). Data were determined as statistically different from the cognate ligand for each receptor (***, p < 0.001; ****, p < 0.0001) using one-way ANOVA with Bonferroni's post-test. E, signaling bias plots were calculated as ΔΔ(τ/Ka) values on a logarithmic scale for each ligand and for each chimera G protein for the three individual RAMP-CLR complexes.\nGeneral yeast procedures were performed as described previously ([22], [24]). […] Receptor signaling was measured using the yeast growth assay as described previously ([24]). […] A fluorescein signal was detected as an increase in fluorescence (excitation wavelength = 485 nm, emission wavelength = 535 nm) as a measure of growth. Different concentrations of ligand (0.01 nM–100 μM) were assayed using 96-well plates, and fluorescence was detected using a Tecan Infinite M200 microplate reader (Tecan Ultra Evolution, Reading, UK) or a Mithras LB 940 microplate reader (Berthold Technologies, Harpenden, UK) for 20 h. […]"}, "RAMP3-CLR (AM2 receptor) [2]": {"target": "T1, RAMP3-CLR (AM2 receptor)", "test": "cAMP accumulation, HEK-293 cells, RAMP3 + CLR", "assay_type": "cell-based", "conditions": "mean ± S.E.", "procedure": "HEK-293 cells were transfected with FuGENE 6 (Roche Applied Science) in accordance with the manufacturer's instructions using a 1:3 (w:v) DNA:FuGENE ratio and a 1:1 ratio of RAMP to CLR. […] The transfected cell lines were grown for 24–48 h prior to assaying.\nThe transfected HEK-293 cells were washed in PBS, resuspended in stimulation buffer (PBS containing 0.1% BSA and 0.5 mM IBMX), and seeded at 2000 cells/well in 384-well white Optiplates. Ligands were added in the range of 1 pM to 1 mM, and cAMP accumulation was measured after 30 min of stimulation using a LANCE® cAMP detection kit (PerkinElmer Life Sciences). […] Plates were read using a Mithras LB 940 multimode microplate reader (Berthold Technologies). […] Values were converted to concentration using a cAMP standard curve performed in parallel.\nData analysis for cAMP assays was performed in GraphPad Prism 6.0f (San Diego, CA). Data were fitted to obtain concentration-response curves using either the three-parameter logistic equation (for pEC50 values) or the operational model for partial agonism ([34]) to obtain values of efficacy (log τ) and the equilibrium dissociation constant (log Ka). These values were then used to quantify signaling bias as change in log (τ/Ka) relative to the natural cognate ligand for the respective receptor ([41]). […] Statistical differences were analyzed using one-way ANOVA or Student's t test as appropriate with post hoc Bonferroni's or Dunnett's multiple comparisons, and p < 0.05 was considered significant. […] For RT-PCR, normalization to the internal standard GAPDH was performed to reduce variance and enable a comparison between different cell lines. To quantitate the ligand-dependent response in the yeast system, a strain lacking GPA1 (MMY11), grown in rich medium, was used as a standard ([72]). As GPA1 is not present in this strain, the Gβγ subunits are unregulated and free to signal, allowing us to determine the maximal response of our system. […] For the mammalian cell-based assays, data analysis was carried out as for the yeast curves. […]"}}}
{"smiles": "CC[C@H](C)[C@H](NC(=O)[C@H](CCC(N)=O)NC(=O)[C@H](Cc1c[nH]cn1)NC(=O)[C@H](C)NC(=O)[C@H](CC(C)C)NC(=O)[C@H](CCCCN)NC(=O)[C@H](CCC(N)=O)NC(=O)[C@@H](NC(=O)[C@@H](NC(=O)[C@@H]1CSSC[C@H](NC(=O)CNC(=O)[C@H](Cc2ccccc2)NC(=O)[C@H](CO)NC(=O)[C@H](CCCNC(=N)N)NC(=O)[C@H](CC(C)C)NC(=O)CNC(=O)[C@H](CCC(N)=O)NC(=O)[C@H](Cc2ccccc2)NC(=O)[C@H](CC(N)=O)NC(=O)[C@H](CC(N)=O)NC(=O)[C@H](CCSC)NC(=O)[C@H](CO)NC(=O)[C@H](CCC(N)=O)NC(=O)[C@H](CCCNC(=N)N)NC(=O)[C@@H](N)Cc2ccc(O)cc2)C(=O)N[C@@H](CCCNC(=N)N)C(=O)N[C@@H](Cc2ccccc2)C(=O)NCC(=O)N[C@@H]([C@@H](C)O)C(=O)N1)[C@@H](C)O)C(C)C)C(=O)N[C@@H](Cc1ccc(O)cc1)C(=O)N[C@@H](CCC(N)=O)C(=O)N[C@@H](Cc1ccccc1)C(=O)N[C@H](C(=O)N[C@@H](CC(=O)O)C(=O)N[C@@H](CCCCN)C(=O)N[C@@H](CC(=O)O)C(=O)N[C@@H](CCCCN)C(=O)N[C@@H](CC(=O)O)C(=O)N[C@@H](CC(N)=O)C(=O)N[C@H](C(=O)N[C@@H](C)C(=O)N1CCC[C@H]1C(=O)N[C@@H](CCCNC(=N)N)C(=O)N[C@@H](CO)C(=O)N[C@@H](CCCCN)C(=O)N[C@H](C(=O)N[C@@H](CO)C(=O)N1CCC[C@H]1C(=O)N[C@@H](CCC(N)=O)C(=O)NCC(=O)N[C@@H](Cc1ccc(O)cc1)C(N)=O)[C@@H](C)CC)C(C)C)[C@@H](C)O", "note": "[AM, adrenomedullin]", "values": [{"measurement": "Emax", "setting": "RAMP3-CLR (AM2 receptor) [1]", "value": "25.6 ± 2", "unit": "%"}, {"measurement": "Emax", "setting": "RAMP3-CLR (AM2 receptor) [2]; HEK293, PTX treated (200 ng/ml, 16 h), percentage of maximal cAMP with 100 μM forskolin in presence of PTX, n = 7 (Table 3)", "value": "36 ± 2.2", "unit": "%"}, {"measurement": "Emax", "setting": "RAMP3-CLR (AM2 receptor) [2]; HEK293, percentage of maximal cAMP with 100 μM forskolin, HEK-293, 30 min, n = 9 (Table 2)", "value": "32.1 ± 1.6", "unit": "%"}, {"measurement": "Emax", "setting": "RAMP3-CLR (AM2 receptor) [2]; HEK293, untreated, percentage of maximal cAMP with 100 μM forskolin in presence of PTX, n = 8 (Table 3)", "value": "32 ± 1.5", "unit": "%"}]}
